Where two headings read alike, the source gives them in different places.
Columns and labels:
FACI53 [1] = target: T1, FACI53 (Bos taurus, UniProt P07107, A54C); assay: Isoelectrical focusing of acyl-CoA binding to FACI53; parameters: species or system bovine; conditions: ligand in four-fold molar excess over protein
T1 construct: badan (6-bromoacetyl-2-dimethylaminonaphthalene) fluorophore on the introduced Cys-53; made in house; host or cells: E. coli BL21(DE3)pLysS, pET3a vector
T1 sequence (P07107 2-87 A54C): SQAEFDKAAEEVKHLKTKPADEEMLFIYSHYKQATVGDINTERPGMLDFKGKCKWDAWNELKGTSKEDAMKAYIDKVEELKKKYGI
Procedure: All the gels were prepared with ligands (1-7) in four-fold molar excess over protein. […] The protein-ligand complex shifted to a pl around 3.8. Legend: 1: Water, 2: CoA-SH, 3: C4-CoA, 4: C8-CoA, 5: C12-CoA, 6: C16-CoA, 7: C20-CoA, 8: Broad pl Calibration Kit (pH 3-10).
Quantitative determination of binding affinities (KD) were performed by isothermal titration micro calorimetry as previously described (Faergeman et. al., 1996; Biochemistry 35, 14118-14126). Qualitative evaluation of relative binding affinities were determined by isoelectrical focusing using the Pharmacia Fast Gel system according to the prescriptions given by the manufacture. Fluorescence emission changes induced by acyl-CoA binding to badan modified protein were determined as follows: 5 μl portions of acyl-CoAs were added from stock solutions disolved in binding buffer, (10 mM Hepes, 150 mM NaCL, 1 mM NaHPO4, pH 7.4) containing 3.4 μM Badan derivatized protein to a 1 ml 3.4 μM solution of the Badan derivatized ACBP in the same buffer. The fluorescence emission was measured on a SPEX FLOUROLOG (Industries Inc, Edison N.J., USA) with excitation at 400 nm and emission scan from 400 nm to 550 nm. […]

FACI53 [2] = target: T1, FACI53; assay: Fluorescence emission change of FACI-53 on titration with CoA and acyl-CoA esters; type: binding, bovine
Procedure: (§1) Quantitative determination of binding affinities (KD) were performed by isothermal titration micro calorimetry as previously described (Faergeman et. al., 1996; Biochemistry 35, 14118-14126). Qualitative evaluation of relative binding affinities were determined by isoelectrical focusing using the Pharmacia Fast Gel system according to the prescriptions given by the manufacture. Fluorescence emission changes induced by acyl-CoA binding to badan modified protein were determined as follows: 5 μl portions of acyl-CoAs were added from stock solutions disolved in binding buffer, (10 mM Hepes, 150 mM NaCL, 1 mM NaHPO4, pH 7.4) containing 3.4 μM Badan derivatized protein to a 1 ml 3.4 μM solution of the Badan derivatized ACBP in the same buffer. The fluorescence emission was measured on a SPEX FLOUROLOG (Industries Inc, Edison N.J., USA) with excitation at 400 nm and emission scan from 400 nm to 550 nm. The concentration of acyl-CoA in the aqueous phase was determined from the fluorescence emission sensitivities at 495 and 470 nm repectively essentially by the method described by (Grynkiewickz et. al.,1985, J. Biol. Chem. 260, 3440-3450) according to which:
(§2) Fluorescence titration emission spectra from 415 nm to 550 nm (excitation at 400 nm) were performed for CoA, C4:0-, C8:0-, C12:0-, C16:0-, and C20:0-CoA with all four mutated and badan modified proteins.
Titration of FACI-53 dissolved in binding buffer with the above mentioned acyl-CoA esters produced a smooth downward shift in fluorescence emission maximum from 525 nm when no ligand was present to 508, 503, 490, 492, 496 and 514 with increasing concentrations of CoA, C4:0-, C8:0-, C12:0-, C16:0- and C20:0-CoA respectively.

FACI-24 = target: T2, FACI-24 (Bos taurus, UniProt P07107, M25C); assay: Fluorescence emission change of FACI-24 on titration with CoA and acyl-CoA esters; type: binding, bovine; conditions: emission maximum without ligand 510 nm; excitation 400 nm
T2 construct: made in house; host or cells: E. coli BL21(DE3)pLysS, pET3a vector
T2 sequence (P07107 2-87 M25C): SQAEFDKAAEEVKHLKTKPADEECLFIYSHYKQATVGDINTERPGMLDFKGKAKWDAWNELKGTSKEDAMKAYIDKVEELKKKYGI
Procedure: as §1, §2
The emission maximum of FACI-24 without ligand added was 510 nm and titration with CoA, C4:0-, C8:0-, C12:0-, […], C16:0- and C20:0-CoA caused 0, 16, 34, 42, 46 and 46 nm downshift in emission maximum, respectively (results not shown). C16:0-CoA induced a 5,5 fold increase in emission at 464 nm (FIG. 10).
Titration of FACI with acyl-CoAs was done using a SPEX FLOUROLOG (Industries Inc, Edison N.J., USA) with excitation at 387 nm and emission at 460 nm, with both excitation and emission slits set to 4.5 nm. FACI (0.5-4.5 uM, as indicated) was dissolved in 1.5 ml binding buffer (10 mM HEPES 150 mM NaCl, 5 mM KCl, 1 mM Na2HPO4, pH 7.4) and titrated with a 10 μM acyl-CoA dissolved in binding buffer, with or without FACI added, as indicated. Fluorescence emission values (counts per second) measured without FACI added to the ligand stock solution were corrected for titrand dilution.

[3] = Fluorescence response of the Phe-49_Cys49 badan derivative of bovine ACBP to ligands; type: binding; conditions: badan group exposed to the environment
Procedure: Reference is made to FIG. 2. and FIG. 3. which depict the emission spectra of FACI24 and FACI53 titrated with increasing concentrations of CoA, C4-, C8-, C12-, C16- and C20-CoA esters. The addition of ligand and measurement of emission of FACI24 and FACI53 was performed as described in example 2. The increased addition of ligand to the mutated and modified proteins caused a proportional spectral change. The normal physiological binding profile was confirmed by direct binding studies using isoelectrical focusing as predicted in FIG. 4. […] The results clearly indicate that fluorescence emission at 470 nm may provide a measure for the concentration of free unbound long-chain(>C12)-acyl-CoA ester.
The two sensors presented herein together act as high sensitivity sensors in the chain length range from C8-CoA to C20-CoA. […]
Quantitative determination of binding affinities (KD) were performed by isothermal titration micro calorimetry as previously described (Faergeman et. al., 1996; Biochemistry 35, 14118-14126). Qualitative evaluation of relative binding affinities were determined by isoelectrical focusing using the Pharmacia Fast Gel system according to the prescriptions given by the manufacture. […] The fluorescence emission was measured on a SPEX FLOUROLOG (Industries Inc, Edison N.J., USA) with excitation at 400 nm and emission scan from 400 nm to 550 nm. […]

[4] = Fluorescence titration emission spectra of FACI-46 (negative control); type: binding
From the text: The strategy behind the design of the mutants was based on the tertiary structure of the bovine ACBP/acyl-CoA complex. Both Met-24 and Ala-53 interact directly with the acyl-chain of the acyl-CoA ligand, interacting with the omega-methyl group of long acyl-chains. Positioning of an environmentally sensitive group in one of these positions would therefore be expected to create ligand sensitive probes. Met-46 which is located outside the hydrophobic binding pocket in the loop between helix 2 and 3 was chosen to serve as a negative control which should not be sensitive to ligand binding.
as §2

Question: For `CCCCCCCCCCCCCCCCCCCC(=O)SCCNC(=O)CCNC(=O)[C@H](O)C(C)(C)COP(=O)(O)OP(=O)(O)OC[C@H]1O[C@@H](n2cnc3c(N)ncnc32)[C@H](O)[C@@H]1OP(=O)(O)O` [C20:0-CoA], which “Binding to FACI53 by isoelectrical focusing” value (FACI53 [1]) is on record?
Answer: shown to bind

Question: What about the “Fluorescence response of FACI-53” value (FACI53 [2]) of the same molecule?
Answer: hardly responded

Question: And the “Magnitude of emission of FACI-53, fold increase” value (FACI53 [2])?
Answer: 0.8 fold

Question: What about the “Fluorescence emission maximum of FACI-53 with ligand” value (FACI53 [2]; 525 nm when no ligand present, excitation 400 nm) of the same molecule?
Answer: 514 nm

Question: And the “Relative emission of FACI-53 at 495 nm, fold increase” value (FACI53 [2]; emission at 495 nm)?
Answer: 0.8 fold

Question: And the “Downshift in emission maximum of FACI-24” value (FACI-24)?
Answer: 46 nm

B1: Phe-49_Cys49 badan derivative of bovine ACBP: Phe49 to Cys mutant of bovine ACBP labelled with badan, badan group exposed to the environment (conjugate, UniProt P07107 2-87, looked up, variant F49C)
Acyl-CoA-binding protein: SQAEFDKAAEEVKHLKTKPADEEMLFIYSHYKQATVGDINTERPGMLDCKGKAKWDAWNELKGTSKEDAMKAYIDKVEELKKKYGI
modifications: badan label
notes: Phe49 to Cys mutant of bovine ACBP labelled with badan, badan group exposed to the environment
Question: Which “Fluorescence response to addition of ligands” value [3] does the source give for B1 here?
Answer: did not respond to addition of any of the ligands

B2: FACI-46: badan derivative of M46C-bovine ACBP, negative control (conjugate, UniProt P07107 2-87, looked up, variant M46C)
Acyl-CoA-binding protein: SQAEFDKAAEEVKHLKTKPADEEMLFIYSHYKQATVGDINTERPGCLDFKGKAKWDAWNELKGTSKEDAMKAYIDKVEELKKKYGI
modifications: badan label
notes: badan derivative of M46C-bovine ACBP, negative control
Question: What does the source list for B2?
Answer: Emission spectra changes of FACI-46 with ligands (words) [4]: did not show any emission spectra changes with any of the ligands; Emission spectra changes of FACI-46 with ligands (words) ([4]; listed as FACI46): did not show changes in emission spectra with any of the tested ligands
